In PMC10525516, “Novel NADPH Oxidase-2 Inhibitors as Potential Anti-Inflammatory and Neuroprotective Agents” (Antioxidants, 2023):

Assays:
[1] = Plasma and brain pharmacokinetics in Sprague Dawley rats; format: in vivo
Procedure: Blood samples were collected into labeled microtubes containing dipotassium EDTA solution (20%) as an anticoagulant. Plasma was immediately harvested from the blood by centrifugation at 4000 rpm for 10 min at 4 ± 2 °C and stored below −70 °C until bioanalysis. After isolation, brain tissue samples were rinsed three times in ice cold normal saline (for 5–10 s/rinse using ~5–10 mL normal saline in disposable petri dishes for each rinse) and dried on blotting paper. Tissue samples were homogenized using ice-cold phosphate-buffered saline (pH 7.4). The total homogenate volume (µL) was three times the tissue weight (mg). All homogenates were stored below −70 ± 10 °C until bioanalysis. Concentrations of TG15-132 in plasma and brain samples were determined by fit-for-purpose liquid chromatography with the tandem mass spectrometry method (Sai-Life, Hyderabad, India). Phoenix WinNonlin (version 8.0, Certara, Princeton, NJ, USA) was used to analyze the pharmacokinetic parameters.
(§1) Rapid metabolism and the inability to cross the BBB represent major obstacles in the application of bioactive agents in neurodegenerative diseases. Based on the premise that Nox2 plays a major role in oxidative damage and exacerbates neurodegenerative diseases, we envision applications of brain-permeable Nox2 inhibitors in mechanistic studies in vivo, and, long-term, in the development of novel therapeutic strategies. Therefore, we performed in vivo pharmacokinetics studies to determine the time profile of plasma concentration and accumulation of TG15-132 in the brain tissue of Sprague Dawley rats and C57BL6 mice.

[2] = target: T1, Nox2 (Homo sapiens, UniProt P04839); assay: CBA probe assay of H2O2 production by PMA-activated dHL60 cells; format: cell-based; conditions: PMA (1 µM)-activated dHL60 cells, 30 min preincubation with inhibitor; read-out: IC50, inhibition of H2O2 production, CBA Assay
T1 construct: endogenous in cells
T1 sequence (P04839 2-570 limits assumed): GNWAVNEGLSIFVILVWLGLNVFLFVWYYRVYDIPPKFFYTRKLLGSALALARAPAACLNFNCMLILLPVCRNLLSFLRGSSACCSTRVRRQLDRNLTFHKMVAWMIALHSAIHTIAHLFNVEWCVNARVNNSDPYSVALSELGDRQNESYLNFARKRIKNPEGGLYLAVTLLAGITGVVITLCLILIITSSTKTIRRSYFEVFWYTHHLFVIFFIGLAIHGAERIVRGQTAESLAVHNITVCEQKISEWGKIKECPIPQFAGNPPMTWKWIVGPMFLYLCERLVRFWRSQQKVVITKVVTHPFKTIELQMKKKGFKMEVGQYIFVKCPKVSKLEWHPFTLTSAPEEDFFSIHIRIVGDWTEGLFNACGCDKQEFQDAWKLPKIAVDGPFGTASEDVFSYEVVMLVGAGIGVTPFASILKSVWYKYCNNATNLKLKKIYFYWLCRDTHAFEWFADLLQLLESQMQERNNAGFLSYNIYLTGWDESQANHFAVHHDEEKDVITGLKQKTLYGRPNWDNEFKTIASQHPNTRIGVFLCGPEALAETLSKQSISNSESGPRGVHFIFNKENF
T1 sequence (P13498 2-195 partner limits assumed): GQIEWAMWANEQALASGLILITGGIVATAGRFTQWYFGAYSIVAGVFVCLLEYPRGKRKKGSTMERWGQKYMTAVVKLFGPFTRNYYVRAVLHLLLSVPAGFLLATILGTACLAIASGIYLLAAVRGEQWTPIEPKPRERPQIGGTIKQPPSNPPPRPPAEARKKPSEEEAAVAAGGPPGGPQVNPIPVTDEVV
Procedure: Human promyelocytic leukemia HL60 cells (Sigma-Aldrich) were grown in RPMI 1640 medium (Gibco, 11875-093, Billings, MT, USA) supplemented with 10% FBS (Omega Scientific (Tarzana, CA, USA)), 100 units/mL penicillin, and 100 µg/mL streptomycin, and were incubated at 37 °C and 5% carbon dioxide (CO2). For differentiation to neutrophil-like cells, HL60 cells were pelleted and resuspended in fresh media containing 1 µM of all trans-retinoic acid and incubated for four to five days. Nox2 activation was achieved by treating differentiated HL60 (dHL60) cells with 1 µM PMA [24]. Human leukemia monocytic cells, THP-1, were grown in RPMI 1640 medium + GlutaMAX^TM (Gibco, 61870-036) and supplemented with 10% FBS, 10 mM HEPES, and 1 mM sodium pyruvate and incubated at 37 °C in 5% CO2 environment. To induce differentiation into macrophages, THP-1 cells were treated with PMA (100 ng/mL) for 48 h. To test the efficacy of Nox2 inhibitors, treatment was performed with or without the inhibitor, along with PMA [35].
Plate reader-based analyses of the production of O2^•− and H2O2 by PMA-activated dHL60 cells were performed according to a published protocol with minor modifications. Briefly, for the treatment of dHL60 cells with different concentrations of the compounds, 0.5 mL deep-well 96-well plates were used to dispense and store aliquots of their 10 mM DMSO solutions. Using a Multidrop™ PicoIT dispenser (Thermo Scientific), different volumes of the solutions of candidate Nox inhibitors (10 or 50 mM in DMSO) were injected into the bottom of 0.5 mL V-bottom 96-well plates; then, they were sealed with aluminum foil (VWR, Batavia, IL, USA) using a semiautomatic thermal sealer (BT LabSystems, St. Louis, MO, USA) and stored at −20 °C to reduce freeze-thawing the solutions. The plates with inhibitors were allowed to come to room temperature before the addition of the cell suspensions. dHL60 cells were pelleted and resuspended in HBSS (Invitrogen, Waltham, MA, USA) supplemented with 25 mM HEPES (pH 7.4) and 100 µM DTPA to a cell density of 2 × 10^5 cells/mL. dHL60 cells were added to the V-bottom plates at a volume of 210 µL/well. Next, cells were incubated with inhibitors for 30 min at 37 °C in a CO2-free incubator under ambient oxygen and then transferred to black, clear-bottom 96-well plates (200 µL/well) after incubation. Freshly prepared PMA plus probe solutions in HBSS (5× concentrated, 50 µL/well) included PMA (5 µM) with CBA (500 µM) or with Amplex Red (250 µM) plus HRP (0.5 U/mL) for H2O2 detection, or with HE (50 µM) plus DNA (0.5 mg/mL) for O2^•− detection. Once probes + PMA were added, plates were sealed with sealing film and immediately placed in the pre-warmed plate readers (37 °C). Fluorescence intensities were monitored kinetically from the bottom of the plates every 1.3 min for a period of 2 h using Beckman Coulter (Brea, CA, USA) DTX880 and BMG Labtech (Ortenberg, Germany) FLUOstar Omega plate readers. DMSO alone and DPI (10 µM) were used as negative and positive controls, respectively. […] The IC50 values were determined using at least five independent measurements, each consisting of technical quadruplicates per concentration.

[3] = In vivo pharmacokinetics / brain penetration, species not specified (rodent models); conditions: rat, intraperitoneal, 20 mg/kg, rodent models
From the text: as §1

A Kp at 8 h ([1]; rat, brain, ip, 20 mg/kg i.p., up to 8 h after administration, read-out: brain-to-plasma ratio) of over 10, a half-life ([1]; rat, brain, ip, single dose 20 mg/kg i.p., read-out: brain half-life (converted)) of 5.6 h and an AUC(0-inf) ([1]; rat, plasma, ip, single dose 20 mg/kg i.p.) of 10200 ng·h/mL were found for `CN(C)CCCn1c(SCCc2c[nH]c3ccccc23)nc2ccc(F)cc2c1=O` [TG15-132] in this work. For the same compound, the half-life ([1]; rat, plasma, ip, single dose 20 mg/kg i.p., read-out: plasma half-life (converted)) was 3.7 h, the clearance rate ([1]; single dose 20 mg/kg i.p.) was 32.8 mL/min/kg and the IC50 [2] was 4.3 ± 1.3 µM. The Kp ([3]; Sprague Dawley (rat), C57BL6 (mouse), mouse, brain, read-out: brain-to-plasma ratio (abstract)) was over 5 and the half-life ([3]; Sprague Dawley, plasma, read-out: plasma half-life (abstract) (converted)) was 5.6 h.
